Experimental data published in the NIST ThermoML archive (doi:10.1021/acs.jced.7b00657).
Numbers after ± are expanded uncertainties.

How the values were obtained:
[1] = 298 K; 101.33 kPa; Liquid; Vibrating tube method
[2] = refractive index (Na D-line) (dimensionless); settings: 293 K; 101.33 kPa; Liquid; Standard Abbe refractometry

## FC(F)(F)C(F)(F)C(F)(F)C(F)(F)C(F)(F)C(F)(F)C(F)(F)C(F)(F)F [octadecafluorooctane]
[1]
  mass density: 1756 ± 1 kg/m3
[2]
  refractive index: 1.268 ± 0.001
